{"source": "paper PMC8298375", "about": "(Naunyn-Schmiedeberg's Archives of Pharmacology, 2021)", "key": {"[1]": {"parameters": "method as in Jann [2000]", "settings": "ref Jann [2000]; cited from earlier work"}, "[2]": {"parameters": "method as in Jann [2000]", "settings": "ref Jann [2000], cited from earlier work"}, "[3]": {"test": "In vitro release studies, release kinetics and mechanism (dialysis sac)", "format": "physicochemical", "settings": "PBS pH 7.4, dialysis sac", "procedure": "In vitro release studies were performed using dialysis sac (Sigma membrane, MW cut-off 13 kDa) method. Two milligram equivalent of rivastigmine-loaded nanoparticles were weighed and suspended in 2 mL of phosphate buffer saline (pH 7.4). Samples were withdrawn at predetermined time intervals and analyzed by HPLC method. In order to maintain sink conditions, an equal volume of PBS was replaced. The whole experiment was performed at […]. Based on the cumulative drug release vs. time profiles, the release kinetics models and mechanism were proposed (Akbuǧa and Bergişadi [1997])."}, "[4]": {"system": "AChE", "format": "in vivo, rat", "settings": "scopolamine model, listed as pure drug", "procedure": "Samples were then centrifuged at 10,000 rpm for 5 min, and plasma was stored at − 70 °C until analysis.\nThiocholine, which was produced due to the hydrolysis of acetylthiocholine (ACTI) by AChE, was estimated by making it react with 5, 5′-dithiobis-(2-nitrobenzoic acid) (DTNB). The chemical, 5-thio-2-nitrobenzoic acid (yellow color complex), which was released due to reaction was estimated using a UV spectrophotometer in the range of 400 to 420 nm with maximal absorption at 412 nm. One hundred microliter of blank rat plasma was taken in the polypropylene vials. To this, 2.8 mL of phosphate buffer (0.01 M, pH 8) and 100 µL of DTNB reagents were added and mixed well. Then, 20 µL of ACTI (26.01 mg/mL of Milli-Q water) was added to the contents of the cuvette to initiate the enzyme reaction. The reaction kinetics was monitored at different time intervals (0, 1, 2, 3, 4 min), and absorbance was noted. 2.8 mL buffer (0.01 M, pH 8.0) and 100 µL DTNB reagent served as blank. Concentrations in the range of 0.03–30 mM were prepared using methanol as a diluent. […] Substrate concentration and reaction time were optimized such that sufficient concentration of ACTI is available to bind with the enzyme to initiate the reaction and also it should not saturate the enzyme. In this study, varying concentrations (100–1000 µM) of ACTI were prepared, and reaction kinetics were observed. In general, the maximum time should be either 2–4 min or even less, because the enzyme might undergo degradation. In the present study, up to 4 min of reaction kinetics (changing the optical density or absorbance) was measured. One unit of AChE activity is defined as the number of µmol of acetylthiocholine iodide hydrolyzed per minute. The specific activity of AChE is expressed in moles/min/mg of protein (Kaur et al. [2015]): AChEActivity=(abs.permin×1000×volumeofenzyme)/(13600×TRM)AChEActivity=abovevalue×1000(nanomolar/min/mL)\nwhere 13,600 = molar extinction coefficient of DTNB: 1000-molar conversion factor: (TRM) total reaction mixture 3 mL: volume of enzyme (0.1 mL)."}, "[5]": {"system": "cholinesterase enzyme", "parameters": "method as in Emerich and Walsh [1990]", "settings": "2.5 mg/kg via the oral route; ref Emerich and Walsh [1990]; cited from earlier work"}, "[6]": {"parameters": "method as in Arumugam [2009]", "settings": "male vs female rats; ref Arumugam [2009]; cited from earlier work"}}, "note": "Counter-ions that a name gives are not always drawn.", "data": [{"smiles": "CCN(C)C(=O)Oc1cccc([C@H](C)N(C)C)c1", "note": "[Rivastigmine, Rivastigmine hydrogen tartrate]", "values": [{"measurement": "log P predicted", "setting": "[1]", "result": 2.45}, {"measurement": "bioavailability", "setting": "[2]; oral", "result": "36–40%"}, {"measurement": "plasma elimination half-life", "setting": "[2]", "result": 1.5, "unit": "h"}, {"measurement": "drug released within 2 h", "setting": "[3]", "result": 85, "unit": "%"}, {"measurement": "peak AChE inhibition (Emax, maximum inhibition) in plasma", "setting": "[4]", "result": 71.95, "unit": "%"}, {"measurement": "inhibition of the cholinesterase enzyme in the cortex and hippocampus", "setting": "[5]", "result": "20–30%"}, {"measurement": "elimination rate constant, male rats versus female rats", "setting": "[6]", "result": 2.5, "unit": "fold"}]}]}
